Literature values in patent US20200163962A1, “PHARMACEUTICAL COMPOSITION OF NILOTINIB” (SUN PHARMACEUTICAL INDUSTRIES LTD., priority 2016, published 2020).

What was measured:
[1] = particularly the hydrochloride
[2] = ingested with or after meals, particularly high fat meals

water solubility [1]: poorly water soluble | increase of systemic exposure (AUC) compared to the fasted state (dose given 30 minutes after a high fat meal): 82% | increase of Cmax with food [2]: 112% | increase of area under the plasma profile curve with food [2]: 82%
Structure (SMILES): Cc1cn(-c2cc(NC(=O)c3ccc(C)c(Nc4nccc(-c5cccnc5)n4)c3)cc(C(F)(F)F)c2)cn1 [Nilotinib, 4-methyl-N-[3-(4-methyl-1H-imidazol-1-yl)-5-(trifluoromethyl)phenyl]-3-[[4-(3-pyridinyl)-2-pyrimidinyl]amino]-benzamide]
